# Columns and labels:
# Format in all cases: in vivo
# [1] = tested on: Cynomolgus monkeys (Macaca fascicularis); experiment: Intraocular pressure in laser-induced ocular hypertensive monkeys; details: single topical dose, laser-treated ocular hypertensive eye, IOP at 2, 4, 6 and 24 hours
# Procedure: Cynomolgus monkeys (Macaca fascicularis) were used for the intraocular pressure studies. Each animal was unilaterally laser-treated by circumferential laser photocoagulation to induce ocular hypertension in one eye. Conscious female animals were trained sit in custom design chairs and to accept applanation pneumatonometry. The drug was administered topically to one eye using a dropper bottle to deliver approximately a 35 μl volume, the other eye received vehicle (1% polysorbate 80 in 5 mM Tris HCl) as a control. Proparacaine at 0.25% was used for corneal anesthesia during tonometry. Intraocular pressure was determined just before drug administration and at 2, 4, 6, and 24 hours.
# Beagle dogs [2] = experiment: Ocular surface hyperemia grading in dogs; details: topical to one eye, dosing over a 5 day period; 5 point scale 0=none, 0.5=trace, 1=mild, 2=moderate, 3=severe
# Procedure: (§1) Measurement of intraocular pressure studies in dogs involved applanation pneumatonometry performed in Beagle dogs of both sexes. The animals remained conscious throughout the study and were gently restrained by hand. The drug was administered topically to one eye using a dropper bottle to deliver approximately a 35 μl volume, the other eye received vehicle (1% polysorbate 80 in 5 mM Tris HCI) as a control. Proparacaine at 0.25% was used for corneal anesthesia during tonometry. Intraocular pressure was determined just before drug administration and at 2, 4, 6 hours thereafter on each day of the 5 day study. Measurement of ocular surface hyperemia was performed immediately before each of the intraocular pressure readings. Ocular surface hyperemia grading was semi-quantitative and assessed according to a 5 point scoring scale used for clinical evaluations: 0=none; 0.5=trace; 1=mild; 2=moderate; and 3=severe.
# Beagle dogs [3] = experiment: Intraocular pressure in conscious dogs by applanation pneumatonometry; details: topical to one eye, single daily dose over a 5 day period; IOP before and 2, 4, 6 hours after dosing; vehicle in other eye
# Procedure: as §1
Compound,effect on the IOP of monkeys ([1]; 0.1% w/v solution),ocular surface hyperemia of dogs (Beagle dogs [2]),effect on the IOP of dogs (Beagle dogs [3]),effect on the IOP of monkeys ([1]; 0.01% w/v solution),effect on the IOP of monkeys ([1]; 0.03% w/v solution)
CC(C)OC(=O)COc1cccc(CN(Cc2ccc(C(C)(C)C)cc2)S(=O)(=O)c2cccnc2)c1 [(3-{[(4-tert-butyl-benzyl)-(pyridine-3-sulfonyl)-amino]-methyl}-phenoxy)-acetic acid; isopropyl ester],lowers the elevated IOP over 24 hours almost to the level of the control normotensive eye,minimal ocular surface hyperemia,effective for reducing IOP of the dogs,–,–
CC(C)(C)c1ccc(CN(Cc2cccc(OCC(=O)O)c2)S(=O)(=O)c2cccnc2)cc1 [(3-{[(4-tert-butyl-benzyl)-(pyridine-3-sulfonyl)-amino]-methyl}-phenoxy)-acetic acid],"lowers the elevated IOP over 24 hours, almost to the level of the control normotensive eye",mild ocular surface hyperemia that diminishes over time,effective for reducing IOP of the dogs,lowers the elevated IOP over 24 hours,"lowers the elevated IOP over 24 hours, almost to the level of the control normotensive eye"

# — patent publication US20070049625A1, “EP2 receptor agonists for treating glaucoma” (Allergan, Inc., priority 2005, published 2007)
